The source of these data is US6127349A, “Phospholipid drug derivatives” (Amur Research Corporation, priority 1998, dated 2000).

Data set [1] relates to enzyme on lymphocyte cell membrane that cleaves phosphocholine from other compounds. Put plainly: Stimulation of lymphocyte membrane enzyme that cleaves phosphocholine. The format is biochemical. As to conditions: data not shown.
For data set [2] the following is noted: oral; cited from earlier work.
Data set [3] in a line: Partition of tritiated DHEA-phosphocholine reaction product between aqueous phase and benzene (scintillation counting). Type of data set: physicochemical. How it is done:
A dehydroepiandrosterone(DHEA)-phosphocholine derivative was synthesized as follows: 1 mg of phosphocholine (calcium salt; Sigma Chemical, St. Louis, Mo.) was dissolved in 0.5 ml of formamide (Cat # S-7503; Lot # 55HO257; Sigma Chemical) and 0.5 ml of pyridine (Cat # P-4036; Lot # 55H1489; Sigma Chemical). 0.025 mCi of (1,2,6,7 ^3 H(n)-Dehydroepiandrosterone (Cat # NET814; Lot # 3146097; 89.2 Ci/mmol; Dupont, NEN Products, Boston, Mass.) in 0.025 ml of ethanol was added. The reaction was catalyzed by the addition (as the dry solid) of 5 mg of dicyclohexylcarbodiimide (Cat # D-3129; Lot # 34hO647; Sigma Chemical). The reaction mixture was incubated overnight at room temperature. In the morning, 9 ml of water was added and the mixture extracted 3 times with 10 ml portions of benzene. The benzene extracts were combined and aliquots of both phases were counted in a scintillation counter. The results are set forth below:
The aqueous layer was re-extracted with benzene. The second benzene extraction yielded 272 cpm (0.01 M1) as a confirmation.

The subject of data set [4] is neutral sphingomylenase. Put plainly: Hydrolysis of DHEA-PC by neutral sphingomyelinase. Type of data set: biochemical. On the procedure: (§1) DHEA-phosphocholine (DHEA-PC) was synthesized by sequential reaction of DHEA, choline, and water with phosphorous oxychloride. The synthetic product had the same HPLC retention time and the same mass-spectrum as did the endogenous, actual compound. […] When human serum extracts were analyzed, mass fragments were detected at the same retention time as synthetic material.

The test system of data set [5] is cutaneous hypersensitivity immune response. Put plainly: DNCB-induced cutaneous contact hypersensitivity (ear swelling). Type of data set: in vivo, mice (Balb/c). The following applies: for cutaneous hypersensitivity immune response: 100 μg/day/mouse s.c., twelve days, ears rechallenged with 1% DNCB; for cutaneous hypersensitivity immune response / suppression of the response by dexamethasone: days 7-12; for suppression of the response by dexamethasone: steroid together with dexamethasone. On the procedure:
The effects of DHEA-PC on cutaneous contact hypersensitivity was studied. In this study, mice (Balb/c) were immunologically challenged with DNCB (2 % in ethanol) applied to a 2 cm area on the back. The steroid was injected subcutaneously (100 μg/day/mouse) throughout the twelve-day study period. Ears were rechallenged with DNCB (1% in ethanol) on days 7-12 and swelling was measured daily in order to evaluate the effect on the immune system.

The subject of data set [6] is acidic sphingomylenase. Put plainly: Hydrolysis of DHEA-PC by acidic sphingomyelinase. The format is biochemical. On the procedure:
as §1

The conditions of data set [7]: literature; cited from earlier work.
For data set [8] the following is noted: cited from earlier work.
For data set [9] the following is noted: oral administration, cited from earlier work.

“TGF-α: stimulates lymphocyte membrane enzyme that cleaves phosphocholine”: the “stimulation of enzyme activity” value in [1] is on record as “ten-fold”.
In the case of `C[C@]12CC[C@@H]3c4ccc(O)cc4CC[C@H]3[C@@H]1CC[C@@H]2O` [estradiol], the “activity when administered orally” value in [2] is given as “only limited activity”.
Take `C[C@]12CC[C@H](OP(=O)([O-])OCC[N+](C)(C)C)CC1=CC[C@@H]1[C@@H]2CC[C@]2(C)C(=O)CC[C@@H]12` [DHEA-PC, DHEA-3-PHOSPHOCHOLINE]: the “second benzene extraction radioactivity” value in data set [3] (0.01 M1 aliquot, re-extraction of the aqueous layer with benzene) was found to be 272 cpm. Besides, the “Aqueous Phase radioactivity” value in data set [3] (0.01 ml aliquot, after 3 benzene extractions) is 10,729 cpm. In addition, in data set [3] (0.01 ml aliquot, combined benzene extracts), the “Benzene Phase radioactivity” value is on record as 1,121 cpm. Moreover, the “phase in which the reaction product is found” value in data set [3] (water/benzene) is recorded as “remains in the aqueous phase”. Also, the “hydrolysis by neutral sphingomylenase” value in data set [4] is on record as “hydrolyzed by neutral sphingomylenase”. Further, in [5], the “cutaneous hypersensitivity immune response” value is given as “enhanced the cutaneous hypersensitivity immune response similar to native steroids” and the “suppression of the response by dexamethasone” value (“suppression of the response” for short) is listed as “not suppressed by dexamethasone”. In data set [5] (administered to mice), the dinitrochlorobenzene-induced sensitization entry was “potentiated dinitrochlorobenzene-induced sensitization”. In addition, in data set [6], the “hydrolysis by acidic sphingomylenase” value was “not by acidic sphingomylenase”.
In the case of `O=C1N(Cc2ccc(CO)cc2)[C@H](Cc2ccccc2)[C@H](O)[C@@H](O)[C@@H](Cc2ccccc2)N1Cc1ccc(CO)cc1` [DMP-323], the aqueous solubility entry in data set [7] was “low aqueous solubility”. In data set [8], the “bioavailability upon administration to patients” value was “variability in the compounds bioavailability”. For the same compound, in data set [8] (patients), the efficacy entry is “inconsistent efficacy”.
With `C[C@]12CC[C@H]3[C@@H](CCC4=CC(=O)CC[C@@]43C)[C@@H]1CC[C@@H]2O` [testosterone], the “activity when administered orally” value in data set [2] was “only limited activity”.
As to `C[C@@H]1C[C@H]2[C@@H]3CCC4=CC(=O)C=C[C@]4(C)[C@@]3(F)[C@@H](O)C[C@]2(C)[C@@]1(O)C(=O)CO` [dexamethasone], the “immune response with dexamethasone administered by itself” value in data set [5] (versus control) is “suppressed the immune response below the control”.
Turning to `C[C@]12CC[C@@H](O)C[C@H]1CC[C@@H]1[C@@H]2CC[C@]2(C)C(=O)CC[C@@H]12` [etiocholanolone], the “activity when administered orally” value in [2] is reported as “only limited activity”. In addition, the “inactivated on each pass through the liver” value in data set [9] (free compound) was “about 99%”. For the same compound, in data set [9], the “biologically available fraction of the administered drug” value is recorded as “only a fraction of a percent”.
With `C[C@]12CC[C@H](OS(=O)(=O)O)CC1=CC[C@@H]1[C@@H]2CC[C@]2(C)C(=O)CC[C@@H]12` [DHEA-sulfate], in [5], the “cutaneous hypersensitivity immune response” value is “similar, high level response” and the “suppression of the response” value was “not suppressed by dexamethasone”.
For the compound `C[C@]12CC[C@H](O)CC1=CC[C@@H]1[C@@H]2CC[C@]2(C)C(=O)CC[C@@H]12` [DHEA, dehydroepiandrosterone], the “activity when administered orally” value in data set [2] is “only limited activity”. Besides, the “extraction of free starting material into benzene” value in data set [3] (water/benzene, expected with this protocol) is on record as “extracted quantitatively into benzene”. Also, in [5], the “cutaneous hypersensitivity immune response” value was “similar, high level response” and the “suppression of the response” value was “not suppressed by dexamethasone”.
